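Five concentrations, 48 hours, 96-well plates. Abbreviation: GI50, concentration required for 50% inhibition of growth. The concentration for full growth arrest is given as TGI.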
Legend:
Test in all cases: NCI tumour cell line growth inhibition, 48 h
OVCAR-4 ovarian = test system: OVCAR-4 ovarian
UACC-257 melanoma = test system: UACC-257 melanoma
OVCAR-8 ovarian = test system: OVCAR-8 ovarian
PC-3 prostate = test system: PC-3 prostate
LOX IMVI melanoma = test system: LOX IMVI melanoma
U251 CNS = test system: U251 CNS
SW-620 colon = test system: SW-620 colon
HCT-116 colon = test system: HCT-116 colon
KM20L2 colon = test system: KM20L2 colon
DMS 273 small cell lung = test system: DMS 273 small cell lung

SMILES | GI50 (OVCAR-4 ovarian) | TGI (OVCAR-4 ovarian) | GI50 (UACC-257 melanoma) | TGI (UACC-257 melanoma) | GI50 (OVCAR-8 ovarian) | TGI (OVCAR-8 ovarian) | GI50 (PC-3 prostate) | TGI (PC-3 prostate) | GI50 (LOX IMVI melanoma) | TGI (LOX IMVI melanoma) | GI50 (U251 CNS) | TGI (U251 CNS) | GI50 (SW-620 colon) | TGI (SW-620 colon) | GI50 (HCT-116 colon) | TGI (HCT-116 colon) | TGI (KM20L2 colon) | TGI (DMS 273 small cell lung)
O=C(NCCOCCOCCOCCNC(=O)c1cc2c(o1)C(=O)c1ccccc1C2=O)NC12CC3CC(CC(C3)C1)C2 | 1.02 µM | 2.27 µM | 1.36 µM | 2.83 µM | 1.44 µM | 8.34 µM | 1.95 µM | 13.4 µM | 0.843 µM | 3.16 µM | 2.04 µM | 5 µM | 2.35 µM | 7.26 µM | 2.4 µM | 8.95 µM | – | –
O=C(CC1C(=O)Nc2ccccc2S1(=O)=O)Nc1ccc(Cl)cc1 (stereo unspecified) | – | 77.2 µM | – | 91.6 µM | – | > 100 µM | – | – | – | 41.8 µM | – | 34 µM | – | > 100 µM | – | > 100 µM | > 100 µM | 45.6 µM
Cc1c2ccncc2c(C)c2c1sc1ccccc12 | – | 37.8 µM | – | 47.2 µM | – | 25.1 µM | – | 26.4 µM | – | 21.5 µM | – | 23.8 µM | – | 22.1 µM | – | 15.8 µM | – | –
Nc1ncc(-c2ccc3ncnc(N4CCc5ccc(Cl)cc54)c3c2)cc1C(F)(F)F | 1.07 µM | 3.23 µM | 2.86 µM | 20.9 µM | 2.15 µM | 22.6 µM | 0.84 µM | 16 µM | 0.734 µM | 11.9 µM | 2.65 µM | 16.6 µM | 3.55 µM | 37.3 µM | 2.53 µM | 16.6 µM | – | –
Cc1ccc(-c2nc(-c3nccc4ccccc34)oc2-c2ccccc2)cc1 | – | > 100 µM | – | > 100 µM | – | > 100 µM | – | > 100 µM | – | 48.2 µM | – | > 100 µM | – | > 100 µM | – | > 100 µM | – | –
NC(Cc1c[nH]c2ccc([N+](=O)[O-])cc12)C(=O)O (stereo unspecified) | – | > 100 µM | – | > 100 µM | – | > 100 µM | – | > 100 µM | – | > 100 µM | – | > 100 µM | – | > 100 µM | – | > 100 µM | – | –
C#C[C@@]1(O)[C@@H](CO)O[C@@H](n2cc(C(F)(F)F)c3c(N)ncnc32)[C@@H]1O | 2.41 µM | > 100 µM | 0.6 µM | – | 0.243 µM | > 100 µM | 0.427 µM | > 21.1 µM | 0.288 µM | 2.98 µM | 0.409 µM | – | 0.349 µM | > 21.7 µM | 0.363 µM | > 100 µM | – | –
CCCc1nc(Cl)c(Cl)c(Cl)n1 | – | 33.4 µM | – | > 100 µM | – | 51 µM | – | > 100 µM | – | 17.7 µM | – | 30.1 µM | – | > 52.2 µM | – | 26.8 µM | – | –
O=C(Nc1cc(Cl)ccc1O)c1cccc(Nc2ccnc(C(F)(F)F)c2)c1 | 2.32 µM | 17.4 µM | 4.63 µM | 16.7 µM | 3.77 µM | 32.1 µM | 2.29 µM | 11.6 µM | 2.65 µM | 24.4 µM | 3.05 µM | 83.4 µM | 4.32 µM | 18.5 µM | 2.22 µM | 17.6 µM | – | –
CC1=CP(=O)(c2ccccc2)C=C(C)C1=C(Cl)Cl (stereo unspecified) | – | 26 µM | – | – | – | > 100 µM | – | – | – | 14.9 µM | – | 19.8 µM | – | 16.6 µM | – | 10.1 µM | 4.61 µM | 9.22 µM

— PubChem BioAssay (NCI)
